Test results from patent publication US10287283B2, “Read-through compound prodrugs suppressing premature nonsense mutations” (The Regents of the University of California, priority 2014, dated 2019).
Converted amounts (≈) assume the structure as drawn. Counter-ions that a name gives are not always drawn. Like-named read-outs stand apart in the source and are kept apart here. One block for each compound: values may come before it.

Key:
Aqueous solubility = type: physicochemical
Method: The solubility of selected compounds was tested and compared to that of comparative compound 5. To 5 mg of each test compound, water was slowly added initially in 0.5 mL and then 0.1 mL increments with vortexing for approximately 1 minute in between each aliquot of water addition and visually inspected for homogeneity. […] Table 1 provides the aqueous solubility of various prodrugs.

mdx mice [1] = test: Dystrophin expression after intramuscular injection into TA muscles; type: in vivo; conditions: for number of dystrophin positive fibers: TA muscle of mdx mice, intramuscular injection, compound 5 compared with prodrugs; for dystrophin staining in TA muscles: mdx mice, two weeks after intramuscular injection, compared to DMSO alone
Text: FIG. 8 provides plots showing dystrophin expression after intramuscular injection. Panel (A) provides plots showing dystrophin staining in TA muscles of mdx mice injected with RTC13 or its derivatives and analyzed two weeks after delivery of compounds and compared to muscles treated with DMSO alone. Dystrophin expression was evident in muscles that received the compounds but not in sham-injected muscles. […] (N=4 muscles per compound; scale bar: 50 μ ? ) Panel (B) provides plots showing the number of dystrophin positive fibers determined across the length of the muscle. […] Shown here is the average number of dystrophin positive fibers per cross-sectional area containing the highest number of positives. (N=4 muscles per compound; *: p=0.0008; **: p≤0.04). RTC13: compound 5; […]: compound 16; […]: compound 20; […]: compound 12; and […]: compound 8.

mdx mice [2] = test: Forelimb grip test after oral administration; type: in vivo; conditions: oral administration for up to one month
Text: (§1) FIG. 24 provides plots showing functional improvement in mdx mice after oral administration of compound 8 for up to one month. Panel (A) provides plots showing the forelimb grip test that was used to assess the effects of systemic administration of RTCs on muscle strength. […] (N=5 mice per treatment group; *p<0.05; **p<0.005). Panel (B) provides plots showing the results obtained using the wire test. […] (N=6 mice per treatment group; *p<0.05; **p=0.005). 13Y: compound 8.

Serum chemistry analyses = type: in vivo; conditions: mdx mice; for serum levels of albumin, ALP, total bilirubin, LDH, cholesterol, total protein, and glucose: 30 or 60 mg/kg three times per day up to one month
Method: FIG. 26 provides the results of the serum chemistry analyses of mdx mice treated with vehicle, PTC 124 at a dose of 30 mg/kg, PTC 124 at a dose of 60 mg/kg, compound 8 at a dose of 30 mg/kg or compound 8 at a dose of 60 mg/kg three times per day at intervals of 4 hrs for up to one month. […] Values are expressed as mean plus or minus Standard Deviation (±SD). The symbol * indicates statistical significance compared to mdx treated with vehicle only. The symbol † indicates statistical significance compared to wild type (C57BL/10) untreated mice. (N=4 mice per treatment group; p≤0.05). 13Y: compound 8.

mdx mice [3] = test: Wire test after oral administration; type: in vivo; conditions: oral administration for up to one month
Text: as §1

mdx mice [4] = test: Dystrophin expression in muscles after oral administration for one month; type: in vivo; conditions: three times per day for one month, 30 mg/kg or 60 mg/kg
Method: FIG. 23 provides images of microscopic images obtained from muscles isolated from mdx mice after oral administration of compound 8. Compounds were administered in 6-8 weeks old mdx mice three times per day for one month at the indicated dosages. Dystrophin expression was evident in muscles that received the compounds but not in sham-injected muscles. […] 13Y: compound 8.

[5] = Pharmacokinetics studies after oral administration of compound 8 (tissue levels); type: in vivo; conditions: C57BL/10 mice; for level in heart: oral compound 8 at 10 mg/kg and 30 mg/kg; for level in biceps / level in gastrocnemius: oral compound 8 at 10 mg/kg
Method: (§2) FIG. 19 provides plots showing the results of pharmacokinetics studies in C57BL/10 mice after oral administration of compound 8 in gastrocnemius. The compound was administered at the indicated dosages in 6-8 weeks old C57BL/10 mice and tissues were analyzed in gastrocnemius 15 min, 30 min, 1 hr, 4 hrs, 6 hrs, and 24 hrs after gavage. Compound 8 and RTC13 (compound 5) were not detected in muscles isolated from mice that received compound 8 at a dose of 10 mg/kg. RTC13: compound 5; and 13Y: compound 8.
as §2, with “FIG. 20” for “FIG. 19”, “in biceps.” for “in gastrocnemius.”, “in biceps” for “in gastrocnemius”, “6 hrs” for “6 hrs,”
as §2, with “FIG. 21 provides plots” for “FIG. 19 provides plots”, “8 in heart. The compound” for “8 in gastrocnemius. The compound”, “analyzed in heart 15 min,” for “analyzed in gastrocnemius 15 min,”, “of 10 mg/kg and 30 mg/kg. RTC13:” for “of 10 mg/kg. RTC13:”

mdx mice [6] = test: In vitro force measurement of diaphragm muscles (eccentric contractions); type: in vivo
Method: FIG. 25 provides plots showing in vitro force measurement of diaphragm muscles of mdx mice treated with vehicle, compound 8 at a dose of 30 mg/kg or compound 8 at a dose of 60 mg/kg three times per day at intervals of 4 hrs for up to one month. Muscles isolated from untreated and treated mice muscles were subjected to a series of five eccentric contractions with a 5-min rest between contractions. Results were compared to those of wild type (C57BL/10) mice. Panel (A) provides plots showing the decrease in force (in percentage) obtaining following eccentric contractions over the course of the analyses. […] Plot (B) show the results of the decrement in force (in percentage) obtained in mice treated with compound 8. […] (N=4 mice per treatment group, *: p≤0.05; **: p≤0.03). 13Y: compound 8.

[7] = tested on: normal termination codons; conditions: cited from earlier work
mdx mice [8] = conditions: cited from earlier work
[9] = tested on: lymphoblastoid cell lines derived from A-T patients; conditions: each of the three types of nonsense mutations (TGA>TAA>TAG); cited from earlier work
mdx cells = conditions: cells in culture; cited from earlier work
[10] = Duchenne boys; cited from earlier work
[11] = molecular target: FLuc (firefly luciferase) reporter (Photinus pyralis, UniProt P08659); conditions: cited from earlier work
FLuc (firefly luciferase) reporter, sequence (P08659 whole entry): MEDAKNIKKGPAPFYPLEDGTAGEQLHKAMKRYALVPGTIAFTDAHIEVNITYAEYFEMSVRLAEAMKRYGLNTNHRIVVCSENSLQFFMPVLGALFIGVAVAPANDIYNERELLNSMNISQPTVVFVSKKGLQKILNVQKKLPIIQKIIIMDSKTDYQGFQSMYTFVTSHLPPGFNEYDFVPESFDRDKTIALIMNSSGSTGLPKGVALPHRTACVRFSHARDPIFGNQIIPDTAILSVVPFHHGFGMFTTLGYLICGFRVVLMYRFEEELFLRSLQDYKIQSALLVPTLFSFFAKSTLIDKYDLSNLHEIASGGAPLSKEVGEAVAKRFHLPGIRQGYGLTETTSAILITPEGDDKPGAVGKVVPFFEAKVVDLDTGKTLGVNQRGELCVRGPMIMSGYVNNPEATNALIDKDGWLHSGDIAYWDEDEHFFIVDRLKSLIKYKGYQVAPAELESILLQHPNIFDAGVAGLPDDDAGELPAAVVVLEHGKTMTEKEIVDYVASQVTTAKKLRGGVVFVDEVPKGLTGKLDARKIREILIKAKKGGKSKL

[12] = phase-I clinical study in cystic fibrosis; cited from earlier work
[13] = thermodynamic from solid, water, ambient pH, room temperature, read-out: Solubility in (mg/mL) water at ambient pH, at room temperature

solubility (Aqueous solubility; [13]): 0.1 mg/mL (≈ 226 µM)
Compound: O=C(CN1CCOCC1)/N=C1\NC(=O)/C(=C/c2ccc(-c3ccccc3[N+](=O)[O-])o2)S1 [Compound 20, 2-(morpholin-4-yl)-7V-[(2£′,5Z)-5-{[5-(2-nitrophenyl)furan-2-yl]methylidene}-4-oxo-1,3-thiazolidin-2-ylidene] acetamide]
number of dystrophin positive fibers (mdx mice [1]): compound 5 showed a significantly higher number of positive fibers

solubility (Aqueous solubility; [13]): 3.3 mg/mL
serum levels of albumin, ALP, total bilirubin, LDH, cholesterol, total protein, and glucose (Serum chemistry analyses): within normal range
blood urea nitrogen (BUN) (Serum chemistry analyses; compared to vehicle alone): decrease
creatinine (Serum chemistry analyses; compared to vehicle alone): decrease
level in heart [5]: not detected
level in biceps [5]: not detected
level in gastrocnemius [5]: not detected
Compound: CN1CCN(CC(=O)/N=C2\NC(=O)/C(=C/c3ccc(-c4ccccc4[N+](=O)[O-])o3)S2)CC1 [Compound 8, 2-(4-methylpiperazin-1-yl)-7V-[(2£′,5Z)-5-{[5-(2-nitrophenyl)furan-2-yl]methylidene}-4-oxo-1,3-thiazolidin-2-ylidene]acetamide dihydrochloride]
muscle strength, forelimb grip test (mdx mice [2]): significant force recovery
alanine aminotransferase (ALT) (Serum chemistry analyses; compared to vehicle alone): decrease
average hanging time, wire test (mdx mice [3]): more significant than that of sham-injected mice or mice treated with PTC 124
dystrophin expression in muscles (mdx mice [4]): higher levels of dystrophin expression than muscles obtained from mdx mice treated with PTC124
number of dystrophin positive fibers (mdx mice [1]): No significant differences
decrease in force (in percentage) following eccentric contractions (mdx mice [6]; 30 mg/kg and 60 mg/kg three times per day up to one month): improvement if loss of force was detected
decrement in force (in percentage) (mdx mice [6]; 60 mg/kg three times per day, compared to vehicle only): significantly lower

solubility (Aqueous solubility; [13]): 0.18 mg/mL
Compound: O=C1N/C(=N\C(=O)C2CCNCC2)S/C1=C\c1ccc(-c2ccccc2[N+](=O)[O-])o1 [Compound 16, N-[(2ii,5Z)-5-{[5-(2-nitrophenyl)furan-2-yl]methylidene}-4-oxo-1,3-thiazolidin-2-ylidene]piperidine-4-carboxamide hydrochloride]
number of dystrophin positive fibers (mdx mice [1]): compound 5 showed a significantly higher number of positive fibers

solubility (Aqueous solubility): low solubility
dissolution in water (Aqueous solubility; diluted to IL with water, vigorously stirred for up to 12 hr): did not appear to dissolve fully
solubility (Aqueous solubility; [13]): < 0.005 mg/mL
level in heart [5]: not detected
level in biceps [5]: not detected
level in gastrocnemius [5]: not detected
Compound: N=C1NC(=O)/C(=C/c2ccc(-c3ccccc3[N+](=O)[O-])o2)S1 [Compound 5, (5Z)-2-imino-5-([5-(2-nitrophenyl)furan-2-yl]methylidene)-1,3-thiazolidin-4-one]
read-through of normal termination (stop) codons [7]: not read-through normal termination codons
Dystrophin protein detection in muscle groups (mdx mice [8]; including diaphragm and heart): detected in all muscle groups analyzed
creatine kinase (CK) levels (mdx mice [8]; marker of muscle degeneration): decrease
Dystrophin compared to PTC 124 (mdx mice [8]; mdx mice): significantly higher
muscle strength (mdx mice [8]; over mice that did not receive the RTCs): significant increase in muscle strength
dystrophin expression in skeletal muscles (mdx mice [8]; systemic administration, mdx mice): restores functional levels of dystrophin expression
activity in A-T lymphoblastoid cell lines [9]: biological activity
number of dystrophin positive fibers (mdx mice [1]): significantly higher number of positive fibers than muscles that received compounds 16 and 20
full-length dystrophin in mdx cells (mdx cells): restored full-length dystrophin

Compound: gentamicin
dystrophin staining in TA muscles (mdx mice [1]): Weak expression

Compound: O=C(O)c1cccc(-c2noc(-c3ccccc3F)n2)c1 [PTC124]
muscle strength, forelimb grip test (mdx mice [2]): No significant improvements
efficacy in clinical trials [10]: indeterminate efficacy
read-through of normal termination (stop) codons [7]: does not induce ribosomal readthrough of normal stop codons
effect on reporter [11]: direct effect on the FLuc (firefly luciferase) reporter
readthrough activity compared to aminoglycosides [12]: more efficient readthrough activity than aminoglycosides
tolerability [12]: generally well tolerated
serum levels of albumin, ALP, total bilirubin, LDH, cholesterol, total protein, and glucose (Serum chemistry analyses): within normal range
average hanging time, wire test (mdx mice [3]): No significant improvements

solubility (Aqueous solubility; [13]): 10 mg/mL
Compound: CN(C)CC(=O)/N=C1\NC(=O)/C(=C/c2ccc(-c3ccccc3[N+](=O)[O-])o2)S1 [Compound 12, (£)-N^2,N^2-dimethyl-7V-[(5Z)-5-{[5-(2-nitrophenyl)furan-2-yl]methylidene}-4-oxo-1,3-thiazolidin-2-ylidene]glycinamide hydrochloride]
number of dystrophin positive fibers (mdx mice [1]): No significant differences

Compound: CC(C)(C)c1ccc(O)c(N=Cc2cccc([N+](=O)[O-])c2)c1 [RTC14]
dystrophin staining in TA muscles (mdx mice [1]): Weak expression
